The text below walks through data of patent US20250057808A1, “COMPOSITION COMPRISING BETA LACTAM FOR TREATING ALCOHOL DEPENDENCE AND ALCOHOL ASSOCIATED DISEASES OR CONDITIONS” (Temple University of the Commonwealth System of Higher …, priority 2023, published 2025).

In series [1] the test system is GLT-1. Description: Western blot GLT-1 expression in NAc-core, NAc-shell and liver (50 mg/kg study). In kind it is in vivo, P rats. As to conditions: MC-100093 50 mg/kg or ceftriaxone 200 mg/kg i.p. 5 days; for Protein expression of GLT-1 in the NAc-shell: vs Ethanol group. As to the method:
We used micro-punch procedure to dissect the subregions of the NAc such as NAc-core and NAc-shell as well as the subregions of prefrontal cortex such as infralimbic (IL) and prelimbic (PL) from the brain on day 6 after the last injection day. P rats were removed from the cage and rapidly euthanized by CO2 inhalation followed by rapid decapitation with a guillotine. Brains were isolated and immediately frozen on dry ice and stored at −80° C. The stereotaxic coordinates provided by Paxinos and colleague's rat brain stereotactic atlas was used to isolate NAc-core and NAc-shell using a cryostat apparatus (−20° C.), which then kept at −80° C. for later western blot analyses.
Western Blot assay was performed to measure changes in the expression of GLT-1, xCT, mGluR1, mGluR5, PPAR-α, PPARγ, GAPDH and β-tubulin in the NAc-core and NAc-shell as described in previous publications. A lysis buffer containing protease and phosphatase inhibitors was used to generate a homogenate of liver, Nac-core, and Nac-shell samples. The amount of protein was quantified using a detergent compatible protein assay (Bio-Rad, Hercules, CA, USA) for each sample. Samples were mixed with laemmli dye and loaded with equal amounts on polyacrylamide gels (10%), which separated the proteins using electrophoresis. After that, polyvinylidene difluoride (PVDF) membranes were used to transfer the proteins electrophoretically from the gels. Membranes were incubated in 5% free-fat milk in Tris-buffered saline with Tween-20 (TBST) for 30-60 minutes at room temperature. Membranes were then incubated with appropriate primary antibodies overnight at 4° C.: rabbit anti-GLT-1 (1:5000, Abcam, ab41621), rabbit anti-xCT (1:2000, Abcam, ab175186), rabbit anti-mGluR1 (1:1000, Abcam, ab82211), rabbit anti-mGluR5 (1:1000, Abcam, ab76316), rabbit anti-PPAR-α (1:1000, Abcam, ab24509), and rabbit anti-PPARγ (1:1000, Abcam, ab209350). Mouse anti-β-tubulin (1:1000; BioLegend) was used as a loading control antibody for the brain samples and rabbit anti-GAPDH (1:5000; cell signaling) was used as a loading control antibody for the liver samples. Membranes were washed five times on the next day with TBST followed by incubation with appropriate secondary antibody (1:5000) for 90 minutes at room temperature. Chemiluminescent reagents (Super Signal West Pico, Pierce Inc.) were used to detect the proteins using a GeneSys imaging system to develop the digitized blot images. Water-control group data were represented as 100% and all other values were expressed relative to control group to detect changes in the expression of the protein of interest in the brain and liver samples.
All statistical analyses were conducted with Graphpad Prism software, with p-values of 0.05 or less being statistically significant. We performed a two-way (mixed model) ANOVA followed by Bonferroni multiple comparison post-hoc test to analyze 24 h ethanol consumption, 24 h water consumption, and daily body weight. For the Western blot and oil red O staining analysis, we performed one-way ANOVA with Newman-Keuls as a post hoc multiple comparison test to measure differences between groups as a percentage (relative to control values).

The subject of series [2] is GLT-1. Description: Immunoblot GLT-1 in mPFC-IL, mPFC-PL, NAc-core, NAc-shell (section B). In kind it is in vivo, Male and female alcohol-preferring (P) rats. As to conditions: 100 mg/kg i.p. 5 days. As to the method:
After 24 hours of receiving the last injection, rats were euthanized by CO2 inhalation followed by decapitation with a guillotine. Brains were harvested and immediately frozen on dry ice and stored at −80° C. Cryostat (Leica) was used to isolate the mPFC subregions (mPFC-IL and mPFC-PL), and subregions of the NAc (NAc-core and NAc-shell). Brains were micro-punctured using the stereotaxic coordinates following the Rat Brain Atlas. The isolated brain regions were stored at −80° C. for subsequent protein detection using Western Blot assay.
Immunoblot assays were performed to determine the expression of GLT-1, xCT and β-tubulin in mPFC-IL, mPFC-PL, NAc-core, and NAc-shell of all groups as described previously. Briefly, brain samples were homogenized in lysis buffer supplemented with protease inhibitor and total protein was quantified using protein assay (Bio-Rad, Hercules, CA, USA). Equal amount of the samples was loaded on polyacrylamide gel (10-20%).
Subsequently, proteins were transferred on a PVDF membrane and blocked with 5% milk in Tris-buffered saline Tween-20 (1×TBST) for 30 minutes at room temperature. Membranes were then incubated overnight at 4° C. with one of the following antibodies: rabbit anti-GLT-1 (1:1000, Abcam, AB41621), and/or rabbit anti-xCT (1:1000, Abcam, AB175186). Mouse anti-β-tubulin (1:1000; Cell Signaling D71G5) was used as a loading control antibody. On the following day, membranes were washed five times with 1×TBST followed by incubation with appropriate secondary antibody (1:4000) for 60 minutes at room temperature. Chemiluminescent reagents (Super Signal West Pico, Pierce Inc.) were used to detect proteins using a ChemiDoc imaging system (BioRad, USA).
GLT-1 and xCT expression were normalized against β-tubulin, a control loading protein. Imaging System and ImageJ software version 1.53a were used to quantify and analyze the expression of GLT-1 and xCT in the subregions of the mPFC and NAc. Data from water-control group were represented as 100% and all other values were expressed relative to this control to evaluate the changes in protein expression.
The ratios for treated animals in the ethanol/saline and ethanol/MC-100093 groups were normalized to the mean ratios for the control group (water/saline group). The control ratio was set at 100, and the results from each of the treated groups were expressed as a percentage relative to the water/saline group value of 100%. We normalized the ethanol/saline and ethanol/MC-100093 groups data to water/saline group to reduce any differences of contrast with Western blots for each set of groups (control/water/saline, ethanol/saline, and ethanol/MC-100093 groups).
All statistical analyses were conducted using GraphPad Prism (10). Two-way (mixed) ANOVA followed by Bonferroni multiple comparison post-hoc test was performed to analyze daily ethanol intake, average daily water intake and body weight. One-way ANOVA followed by Newman-Keuls post hoc tests were used to analyze Western blot data. All statistical analyses data were reported as a p<0.05 of significance.
On the technique in general: Immunoblotting shows a protein as a band on a membrane.

The conditions of series [3]: rodent liver microsomes in vitro; cited from earlier work.
Series [4] has as its system GLT-1. The settings on record: cited from earlier work.
The mark [5] stands for this setting: female P rats, vs ethanol-saline and water-saline.
Setting [6] is: male P rats, vs ethanol-saline and water-saline.

Entries after “also recorded” stand apart in the source; their conditions may differ.

As for `C[C@@H](O)[C@H]1C(=O)N[C@@H]1[C@@H](C)C(=O)N1CCN(C)CC1` [MC-100093], the “Protein expression of GLT-1 in the liver” value in the series with GLT-1 [1] was “normalized GLT-1 level; also recorded: normalize the PPAR-α and GLT-1 levels in the liver”. Also, the “Protein expression of GLT-1 in the NAc-core” value in the series with GLT-1 [1] (among Control, Ethanol, Ethanol-MC, Ethanol-CEF) was “non-significant difference; also recorded: no significant difference”. Further, the “Protein expression of GLT-1 in the NAc-shell” value in the series on GLT-1 [1] was “normalized GLT-1 and xCT levels in the NAc-shell”; in the series with GLT-1 [1] (listed as MC-100095) it was “significantly increased”. Also, the “GLT-1 expression in the NAc-core” value is “significant upregulation of GLT-1 expression” in the series on GLT-1 [2] (female P rats) and “significantly increased” in the series with GLT-1 [2] (setting [6]). For the same compound, the “GLT-1 expression in the NAc-shell” value with GLT-1 [2] (female P rats) is given as “significant upregulation of GLT-1 expression”; with GLT-1 [2] (setting [6]), “significantly increased”. For the same compound, the entries for the “GLT-1 expression in the mPFC-IL” value in the series with GLT-1 [2] (setting [5]) and with GLT-1 [2] (male P rats) were “upregulated GLT-1 expression” and “attenuated ethanol-induced downregulation of GLT-1 expression”, respectively. Also, the “GLT-1 expression in the mPFC-PL” value with GLT-1 [2] (setting [5]) is recorded as “significant upregulation of GLT-1 expression”; in the series on GLT-1 [2] (male P rats, vs ethanol-saline and water-saline, 100 mg/kg), “significantly upregulated GLT-1 expression; also recorded: significantly increased”. Further, the “GLT-1 expression in mPFC and NAc subregions (summary)” value in the series with GLT-1 [2] (female and male P rats, vs ethanol-saline groups, 100 mg/kg) was “upregulated GLT-1 and xCT expression in mPFC and NAc subregions; also recorded: increasing GLT-1 and xCT expression in the mPFC and NAc subregions”. Further, in series [3], the “Stability in liver microsomes” value is reported as “high stability”. In the series with GLT-1 [4], the GLT-1 upregulatory properties entry is recorded as “potent GLT-1 upregulator; also recorded: enhanced GLT-1 upregulatory properties compared to ceftriaxone”.
